Experimental data taken from patent US11840686B2, “Modulation of prekallikrein (PKK) expression” (Ionis Pharmaceuticals, Inc., priority 2013, dated 2023).
Strand notation (5' to 3'): a small letter for the sugar, then the base; units joined by * are phosphorothioate-linked, units joined directly phosphodiester-linked; [ ] holds rarer units or linkages, { } end groups; capitals alone tell only the bases. e = 2'-O-(2-methoxyethyl) (MOE); k = constrained ethyl (cEt); [5mC] = 5-methylcytosine; d = 2'-deoxy (DNA)

Test system: human PKK mRNA
Test: Antisense inhibition of human PKK mRNA in HepaRG cells, 1,000 nM, MOE/deoxy/cEt oligonucleotides (Example 3)
Format: cell-based
Method: Additional antisense oligonucleotides were designed targeting a PKK nucleic acid and were tested for their effects on PKK mRNA in vitro.
The chimeric antisense oligonucleotides in the tables below were designed as deoxy, MOE and cEt gapmers. The gapmers are 16 nucleosides in length wherein the nucleoside have either a MOE sugar modification, a cEt sugar modification, or a deoxy modification. The ‘Chemistry’ column describes the sugar modifications of each oligonucleotide. ‘k’ indicates an cEt sugar modification; the number indicates the number of deoxynucleosides; otherwise, indicates a deoxynucleoside; and ‘e’ indicates a 2′-O-methoxyethyl modification. The internucleoside linkages throughout each gapmer are phosphorothioate linkages. All cytosine residues throughout each oligonucleotide are 5-methylcytosines. “Start site” indicates the 5′-most nucleoside to which the gapmer is targeted in the human gene sequence. “Stop site” indicates the 3′-most nucleoside to which the gapmer is targeted in the human gene sequence.
Cultured HepaRG™ cells at a density of 20,000 cells per well were transfected using electroporation with 1,000 nM antisense oligonucleotide. After a treatment period of approximately 24 hours, RNA was isolated from the cells and PKK mRNA levels were measured by quantitative real-time PCR. Human primer probe set RTS3454 was used to measure mRNA levels. ISIS 531231 was also included in this assay. PKK mRNA levels were adjusted according to total RNA content, as measured by RIBOGREEN®. The antisense oligonucleotides were tested in a series of experiments that had similar culture conditions. Results are presented as percent inhibition of PKK, relative to untreated control cells.

[1] = HepaRG cells, electroporation with 1,000 nM antisense oligonucleotide, approximately 24 hours, primer probe set RTS3454, relative to untreated control cells, experiment of Table 24
[2] = Table 19, HepaRG cells, electroporation with 1,000 nM antisense oligonucleotide, approximately 24 hours, PKK mRNA by RT-PCR (RTS3454), relative to untreated control cells
[3] = Table 21 experiment, HepaRG cells, electroporation with 1,000 nM antisense oligonucleotide, approx. 24 hours, PKK mRNA by RT-PCR (RTS3454), relative to untreated control cells
[4] = HepaRG cells, electroporation with 1,000 nM antisense oligonucleotide, approximately 24 hours, primer probe set RTS3454, relative to untreated control cells, experiment of Table 23
[5] = PKK mRNA, HepaRG cells, 1,000 nM antisense oligonucleotide, Table 31
[6] = HepaRG cells, electroporation with 1,000 nM antisense oligonucleotide, approx. 24 hours, PKK mRNA by RT-PCR (RTS3454), relative to untreated control cells, Table 25 experiment
[7] = Table 20, HepaRG cells, electroporation with 1,000 nM antisense oligonucleotide, approximately 24 hours, PKK mRNA by RT-PCR (RTS3454), relative to untreated control cells
[8] = Table 22 experiment, HepaRG cells, electroporation with 1,000 nM antisense oligonucleotide, approx. 24 hours, PKK mRNA by RT-PCR (RTS3454), relative to untreated control cells
[9] = HepaRG cells, 1,000 nM antisense oligonucleotide, Table 29
[10] = Table 27, HepaRG cells, 1,000 nM antisense oligonucleotide, human PKK mRNA
[11] = Table 30, human PKK mRNA, HepaRG cells, 1,000 nM antisense oligonucleotide

## 548026 (eG*eT*k[5mC]*d[5mC]*dT*dA*dT*dG*dA*dG*dT*dG*dA*k[5mC]*k[5mC]*e[5mC]; antisense) [compound 548026]
[1]
  % inhibition: 52%

## 548086 (antisense e[5mC]*eT*kA*dA*dG*dG*dG*dA*d[5mC]*d[5mC]*dA*d[5mC]*d[5mC]*kT*kG*eA) [compound 548086]
[2]
  % inhibition: 36%

## 547842 (antisense eG*eA*kT*dG*dA*d[5mC]*d[5mC]*dA*d[5mC]*dA*dT*dT*dG*k[5mC]*kT*eT) [compound 547842]
[3]
  % inhibition: 10%

## 547936 (eG*eA*k[5mC]*dT*d[5mC]*dG*dA*dT*dT*dT*dT*d[5mC]*d[5mC]*kA*kT*eA; antisense) [compound 547936]
[4]
  % inhibition: 44%

## 547995 (antisense eG*eT*kG*dT*d[5mC]*d[5mC]*d[5mC]*dA*dT*dA*d[5mC]*dG*d[5mC]*kA*kA*eT) [compound 547995]
[4]
  % inhibition: 64%

## 547985 (antisense eG*e[5mC]*kG*dA*dA*dT*d[5mC]*dA*dT*d[5mC]*dT*dT*dT*kG*kT*eG) [compound 547985]
[4]
  % inhibition: 63%

## 547771 (antisense e[5mC]*eT*kT*dG*dG*dA*dG*dG*dT*dG*dA*dG*dT*k[5mC]*kT*e[5mC]) [compound 547771]
[3]
  % inhibition: 60%

## 548516 (antisense e[5mC]*eT*kT*dG*d[5mC]*d[5mC]*dT*dA*dT*dT*d[5mC]*dA*d[5mC]*k[5mC]*k[5mC]*e[5mC]) [compound 548516]
Table 28, HepaRG cells, 1,000 nM antisense oligonucleotide, human PKK mRNA
  % inhibition: 49%

## 547830 (eG*e[5mC]*kA*d[5mC]*d[5mC]*dT*dG*dT*dT*d[5mC]*dG*dA*dT*kG*kT*eA; antisense) [compound 547830]
[3]
  % inhibition: 74%

## 548648 (antisense e[5mC]*eA*kG*dT*dT*dG*dT*dA*dT*d[5mC]*d[5mC]*d[5mC]*dT*k[5mC]*k[5mC]*e[5mC]) [compound 548648]
[5]
  % inhibition: 32%

## 548056 (eG*eT*kG*dT*dA*dA*dT*dT*d[5mC]*dA*dA*dA*dG*kG*kA*eG; antisense) [compound 548056]
[1]
  % inhibition: 40%

## 548179 (eG*eG*kA*dG*dA*dT*d[5mC]*dT*d[5mC]*dA*dG*dT*dT*kG*k[5mC]*eG; antisense) [compound 548179]
[6]
  % inhibition: 52%

## 547902 (eA*e[5mC]*kT*dG*dT*dA*d[5mC]*dT*dT*dT*dA*dA*dT*kA*kG*eG; antisense) [compound 547902]
[7]
  % inhibition: 20%
[8]
  % inhibition: 33%

## 547969 (antisense eT*e[5mC]*k[5mC]*d[5mC]*dG*dG*dG*dT*dA*dA*dA*dT*dT*kT*kT*eA) [compound 547969]
[4]
  % inhibition: 0%

## 548579 (eG*eG*kG*d[5mC]*dT*dA*dT*dA*dT*dT*dG*d[5mC]*d[5mC]*kA*kG*e[5mC]; antisense) [compound 548579]
[9]
  % inhibition: 46%

## 548127 (eT*eT*kG*d[5mC]*d[5mC]*dT*dA*dG*dA*d[5mC]*dT*d[5mC]*dT*kG*kG*eA; antisense) [compound 548127]
[2]
  % inhibition: 60%

## 547858 (antisense e[5mC]*eT*k[5mC]*dT*d[5mC]*dA*dT*dA*dT*d[5mC]*dA*dA*d[5mC]*kT*k[5mC]*e[5mC]) [compound 547858]
[7]
  % inhibition: 82%
[8]
  % inhibition: 76%

## 548171 (e[5mC]*eA*kG*dT*dT*dG*d[5mC]*dG*dA*d[5mC]*d[5mC]*dT*d[5mC]*kG*k[5mC]*eA; antisense) [compound 548171]
[6]
  % inhibition: 47%

## 548325 (e[5mC]*e[5mC]*k[5mC]*dA*d[5mC]*dT*dG*dA*d[5mC]*dT*dG*dA*d[5mC]*kT*kA*e[5mC]; antisense) [compound 548325]
[10]
  % inhibition: 27%

## 548372 (eG*eA*kT*dA*d[5mC]*d[5mC]*dT*dT*dT*d[5mC]*d[5mC]*dA*d[5mC]*kT*k[5mC]*e[5mC]; antisense) [compound 548372]
[10]
  % inhibition: 61%

## 547915 (eT*eG*kG*d[5mC]*dA*dA*d[5mC]*dA*dT*d[5mC]*d[5mC]*dA*d[5mC]*kA*kT*e[5mC]; antisense) [compound 547915]
[7]
  % inhibition: 0%
[8]
  % inhibition: 62%

## 548571 (eA*e[5mC]*kT*d[5mC]*dT*dG*dA*dG*dG*d[5mC]*d[5mC]*dT*dT*kA*kG*eG; antisense) [compound 548571]
[9]
  % inhibition: 59%

## 548079 (e[5mC]*e[5mC]*kT*dT*d[5mC]*dT*dT*dT*dA*dT*dA*dG*d[5mC]*k[5mC]*kA*eG; antisense) [compound 548079]
[2]
  % inhibition: 39%

## 548347 (antisense eG*e[5mC]*kT*dG*dT*dT*d[5mC]*dT*dA*dA*dG*d[5mC]*dG*kA*kG*eA) [compound 548347]
[10]
  % inhibition: 31%

## 548541 (antisense eG*eG*k[5mC]*dA*d[5mC]*dT*dG*dG*dT*d[5mC]*dA*dT*dG*kG*kA*e[5mC]) [compound 548541]
[9]
  % inhibition: 39%

## 548622 (antisense eT*eT*kT*d[5mC]*dT*dA*dT*dG*dG*dG*d[5mC]*d[5mC]*dT*kG*kA*e[5mC]) [compound 548622]
[5]
  % inhibition: 0%

## 548319 (e[5mC]*e[5mC]*kT*d[5mC]*dA*dT*d[5mC]*dT*d[5mC]*dA*dG*dT*dA*kT*kG*eA; antisense) [compound 548319]
[10]
  % inhibition: 26%

## 548096 (antisense eG*eT*kG*dT*dT*dT*dG*d[5mC]*dA*dA*dA*d[5mC]*dT*kA*kA*eG) [compound 548096]
[2]
  % inhibition: 23%

## 548454 (eA*e[5mC]*kT*dG*dT*dA*d[5mC]*d[5mC]*dT*dA*dT*dA*dA*k[5mC]*kA*eG; antisense) [compound 548454]
[11]
  % inhibition: 17%

## 548649 (antisense eG*e[5mC]*k[5mC]*dT*d[5mC]*dT*d[5mC]*dA*dG*dA*d[5mC]*dG*dG*k[5mC]*kA*e[5mC]) [compound 548649]
[5]
  % inhibition: 0%

## 548450 (e[5mC]*eT*kA*d[5mC]*d[5mC]*dT*dA*dT*dA*dA*d[5mC]*dT*d[5mC]*kT*kA*eA; antisense) [compound 548450]
[11]
  % inhibition: 0%

## 548198 (eA*e[5mC]*kT*dG*d[5mC]*dA*dG*dG*d[5mC]*dA*dA*dT*dA*kT*kT*eT; antisense) [compound 548198]
[6]
  % inhibition: 49%

## 548025 (eT*eG*kA*dG*d[5mC]*dT*dG*dT*d[5mC]*dA*dG*d[5mC]*dT*kT*k[5mC]*eA; antisense) [compound 548025]
[1]
  % inhibition: 66%

## 548398 (eA*eT*kA*dG*dG*d[5mC]*dA*dA*dT*dT*dG*dT*dT*k[5mC]*k[5mC]*eT; antisense) [compound 548398]
[11]
  % inhibition: 55%

## 547986 (antisense e[5mC]*eA*kG*d[5mC]*dG*dA*dA*dT*d[5mC]*dA*dT*d[5mC]*dT*kT*kT*eG) [compound 547986]
[4]
  % inhibition: 63%

## 548306 (eA*eT*kG*dT*dG*dA*d[5mC]*dA*dG*dT*d[5mC]*dA*dG*kG*kG*eA; antisense) [compound 548306]
[10]
  % inhibition: 8%

## 548060 (e[5mC]*eT*kT*dG*dT*dG*dT*d[5mC]*dA*d[5mC]*d[5mC]*dT*dT*kT*kG*eG; antisense) [compound 548060]
[1]
  % inhibition: 76%

## 548162 (e[5mC]*e[5mC]*kT*d[5mC]*dG*d[5mC]*dA*dT*dT*dG*dT*d[5mC]*dA*kG*k[5mC]*e[5mC]; antisense) [compound 548162]
[6]
  % inhibition: 25%

## 548119 (antisense eT*eG*kG*dA*d[5mC]*dT*dG*d[5mC]*dT*dT*d[5mC]*dT*d[5mC]*kA*kT*eG) [compound 548119]
[2]
  % inhibition: 25%
